Data taken from patent US20260108527A1, “POLO LIKE KINASE 4 INHIBITORS” (ORIC Pharmaceuticals, Inc., priority 2022, published 2026).

How the values were obtained:
[1] = molecular target: T1, human recombinant Aurora B (Homo sapiens, UniProt Q96GD4); test: Aurora B Kinase Biochemical Assay (ADP-Glo); conditions: selectivity ratio; Aurora B 10 nM, 114 μM ATP
T1 construct: purchased ThermoFisher PR9210B
Description: Activity of human recombinant Aurora B (ThermoFisher, cat #PR9210B) was measured by quantification of adenosine diphosphate (ADP) using the ADP-Glo Kinase Assay Kit (Promega, cat #V9102). Test compounds were solubilized in dimethyl sulfoxide (DMSO) and dispensed into 384-well white polystyrene nonbinding plates (Greiner, cat #781094) using the Echo acoustic dispenser (Labcyte Inc.) in a 11-point 3-fold titration in duplicates. 5 μL of 20 nM Aurora B in assay buffer (50 mM HEPES, pH 7.5, 0.01% Brij-35, 0.01% BSA, 10 mM MgCl2, 1 mM EGTA, 1 mM DTT) was added to the plates. Test compounds and Aurora B were incubated for 15 minutes at room temperature (RT). Then 5 μL of a 228 μM adenosine triphosphate (ATP) (Promega, cat #V915B) and 9.3 μM Myelin Basic Protein (MBP) (SignalChem, cat #M42-51N) substrate solution in assay buffer was added and the reaction mixture was incubated for 2 hours at RT. The final concentration of Aurora b, ATP and MBP in the reactions were 10 nM, 114 μM and 4.7 μM, respectively. Reactions were stopped and the remaining ATP depleted by adding 10 μL of ADP-Glo reagent (Promega, cat #V912B) and incubating for 40 minutes at RT. The simultaneous conversion of the remaining ADP to ATP and measurement of the newly synthesized ATP was achieved by addition of 20 μL Kinase Detection reagent (Promega, cat #V9141B), incubation for 30 min at RT, and luminescence detection using the EnVision plate reader (PerkinElmer). Reactions lacking Aurora B were used as […]. Reactions containing DMSO alone were used as […]. The IC50 values reported in Table 2 were determined using four parameter non-linear regression curve fit.

[2] = molecular target: T2, human recombinant PLK4 (Homo sapiens, UniProt O00444); test: PLK4 Biochemical Assay (ADP-Glo); conditions: 0.5 nM PLK4, 8.0 μM ATP, 4.7 μM MBP, 6 hours at RT
T2 construct: purchased ThermoFisher PV6396
T2 sequence (O00444 1-970): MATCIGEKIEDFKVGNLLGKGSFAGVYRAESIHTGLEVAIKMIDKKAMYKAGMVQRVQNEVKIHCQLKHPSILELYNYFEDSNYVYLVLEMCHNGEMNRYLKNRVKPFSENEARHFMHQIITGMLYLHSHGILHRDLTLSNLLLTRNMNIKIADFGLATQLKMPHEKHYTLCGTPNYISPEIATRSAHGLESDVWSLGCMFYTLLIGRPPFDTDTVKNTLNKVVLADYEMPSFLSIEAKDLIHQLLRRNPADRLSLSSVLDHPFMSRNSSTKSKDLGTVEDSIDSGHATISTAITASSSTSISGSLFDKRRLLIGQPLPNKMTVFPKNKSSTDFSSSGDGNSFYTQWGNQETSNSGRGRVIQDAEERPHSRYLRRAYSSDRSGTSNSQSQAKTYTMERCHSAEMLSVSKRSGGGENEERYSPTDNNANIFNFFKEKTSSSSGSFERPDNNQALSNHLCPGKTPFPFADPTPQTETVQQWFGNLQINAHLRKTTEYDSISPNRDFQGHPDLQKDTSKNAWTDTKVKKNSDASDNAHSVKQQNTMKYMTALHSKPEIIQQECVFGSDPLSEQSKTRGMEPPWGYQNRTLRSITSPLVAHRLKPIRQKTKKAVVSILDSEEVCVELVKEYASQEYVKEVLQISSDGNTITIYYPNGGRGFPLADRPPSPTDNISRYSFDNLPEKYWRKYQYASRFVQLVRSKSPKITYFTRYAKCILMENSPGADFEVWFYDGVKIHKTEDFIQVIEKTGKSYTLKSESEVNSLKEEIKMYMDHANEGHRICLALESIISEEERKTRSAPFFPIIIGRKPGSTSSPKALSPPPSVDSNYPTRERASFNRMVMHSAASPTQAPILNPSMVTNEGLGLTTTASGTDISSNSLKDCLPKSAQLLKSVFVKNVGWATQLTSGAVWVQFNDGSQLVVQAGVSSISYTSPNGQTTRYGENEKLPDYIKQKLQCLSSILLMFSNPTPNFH
Description: Activity of human recombinant PLK4 (ThermoFisher, cat #PV6396) was measured by quantification of adenosine diphosphate (ADP) using the ADP-Glo Kinase Assay Kit (Promega, cat #V9102). […] 5 μL of 1.0 nM PLK4 protein in assay buffer (50 mM HEPES, pH 7.5, 0.01% Brij-35, 0.01% BSA, 10 mM MgCl2, 1 mM EGTA, 1 mM DTT) was added to the plates. Test compounds and PLK4 were incubated for 15 minutes at room temperature (RT). […] Reactions were stopped and the remaining ATP depleted by adding 10 μL of ADP-Glo reagent (Promega, cat #V912B) and incubating for 40 minutes at RT. The simultaneous conversion of the remaining ADP to ATP and measurement of the newly synthesized ATP was achieved by addition of 20 μL Kinase Detection reagent (Promega, cat #V914B), incubation for 30 min at RT, and luminescence detection using the EnVision plate reader (PerkinElmer). […] The IC50 values reported in Table 2 were determined using four parameter non-linear regression curve fit.

[3] = molecular target: T3, human recombinant Aurora A (Homo sapiens, UniProt O14965); test: Aurora A Kinase Biochemical Assay (ADP-Glo); conditions: selectivity ratio; Aurora A 2.5 nM, 20 μM ATP
T3 construct: purchased ThermoFisher PR5935A
T3 sequence (O14965 1-403): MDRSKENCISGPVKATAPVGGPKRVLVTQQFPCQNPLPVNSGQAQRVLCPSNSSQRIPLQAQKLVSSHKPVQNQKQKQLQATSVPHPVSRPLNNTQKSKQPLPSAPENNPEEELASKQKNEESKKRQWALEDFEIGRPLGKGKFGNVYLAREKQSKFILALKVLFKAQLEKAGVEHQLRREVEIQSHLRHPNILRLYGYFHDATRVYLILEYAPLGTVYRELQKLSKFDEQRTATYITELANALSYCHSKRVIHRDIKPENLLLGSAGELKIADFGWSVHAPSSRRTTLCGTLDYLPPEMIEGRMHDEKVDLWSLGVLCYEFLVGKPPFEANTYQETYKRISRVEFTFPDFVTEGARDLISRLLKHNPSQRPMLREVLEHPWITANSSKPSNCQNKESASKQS
Description: Activity of human recombinant Aurora A (ThermoFisher, cat #PR5935A) was measured by quantification of adenosine diphosphate (ADP) using the ADP-Glo Kinase Assay Kit (Promega, cat #V9102). Test compounds were solubilized in dimethyl sulfoxide (DMSO) and dispensed into 384-well white polystyrene nonbinding plates (Greiner, cat #781094) using the Echo acoustic dispenser (Labcyte Inc.) in a 11-point 3-fold titration in duplicates. 5 μL of 5.0 nM Aurora A in assay buffer (50 mM HEPES, pH 7.5, 0.01% Brij-35, 0.01% BSA, 10 mM MgCl2, 1 mM EGTA, 1 mM DTT) was added to the plates. Test compounds and Aurora A were incubated for 15 minutes at room temperature (RT). Then 5 μL of a 40 μM adenosine triphosphate (ATP) (Promega, cat #V915B) and 9.3 μM Myelin Basic Protein (MBP) (SignalChem, cat #M42-51N) substrate solution in assay buffer was added and the reaction mixture was incubated for 2 hours at RT. The final concentration of Aurora A, ATP and MBP in the reactions were 2.5 nM, 20 μM and 4.7 μM, respectively. Reactions were stopped and the remaining ATP depleted by adding 10 μL of ADP-Glo reagent (Promega, cat #V912B) and incubating for 40 minutes at RT. The simultaneous conversion of the remaining ADP to ATP and measurement of the newly synthesized ATP was achieved by addition of 20 μL Kinase Detection reagent (Promega, cat #V914B), incubation for 30 min at RT, and luminescence detection using the EnVision plate reader (PerkinElmer). Reactions lacking Aurora A were used as 100% inhibition controls. Reactions containing DMSO alone were used as 0% inhibition controls. The IC50 values reported in Table 2 were determined using four parameter non-linear regression curve fit.

[4] = test system: CHP134; test: CHP134 CellTiter-Glo (CTG) Assay; format: cell-based; conditions: Homo sapiens, CHP-134, 120 h; viable cells by CellTiter-Glo after 5 days
Description: […] cells (DSMZ-German Collection of Microorganisms and Cell Cultures, Braunschweig Germany) were cultured in RPMI 1640 supplemented with 10% fetal bovine serum, penicillin (100 U/ml), 1% L-Glutamine and streptomycin ([…]). Cells were seeded (200 cells/well) in 384-well plates for 16 hours. On day two, nine serial 1:3 compound dilutions were made in DMSO in a 96-well plate. The compounds were then further diluted into growth media using a BRAVO robot (Agilent, Santa Clara, CA). The diluted compounds were then added to quadruplicate wells in the 384-well cell plate and incubated at 37° C. and 5% CO2. After 5 days, relative numbers of viable cells were measured by luminescence using CellTiter-Glo® (Promega) according to the manufacturer's instructions and read on a SPARK Multimode Microplate Reader (Tecan, Mannedorf Switzerland). The IC50 calculations for the values reported in Table 2 were carried out using Prism 6.0 software (GraphPad, San Diego).

T1 sequence (Q96GD4 whole entry): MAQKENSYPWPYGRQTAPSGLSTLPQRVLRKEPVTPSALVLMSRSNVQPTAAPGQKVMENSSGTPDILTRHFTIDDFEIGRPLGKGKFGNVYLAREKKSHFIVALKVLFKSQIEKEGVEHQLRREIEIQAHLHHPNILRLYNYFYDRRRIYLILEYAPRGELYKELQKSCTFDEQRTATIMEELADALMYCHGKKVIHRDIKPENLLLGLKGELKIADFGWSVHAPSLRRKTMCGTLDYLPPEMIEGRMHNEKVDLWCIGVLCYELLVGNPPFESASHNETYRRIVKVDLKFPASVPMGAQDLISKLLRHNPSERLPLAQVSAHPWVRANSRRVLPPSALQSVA

Row | [Aurora B IC50 (nM)]/[PLK4 IC50 (nM)] [1] | IC50 [2] | [Aurora A IC50 (nM)]/[PLK4 IC50 (nM)] [3] | SMILES | IC50 [4]
1 | 12202.7972 | 2.29 nM | 4350.9615 | COc1ccc2c(c1)[C@]1(C[C@H]1c1ccc3c(Nc4cc(-c5cn(C)nc5OC)ccc4OC)n[nH]c3c1)C(=O)N2 [Example 36, (1R,2S)-5′-methoxy-2-{3-[2-methoxy-5-(3-methoxy-1-methyl-1H-pyrazol-4-yl)anilino]-1H-indazol-6-yl}spiro[cyclopropane-1,3′-indol]-2′(1′H)-one] | 
2 | 608.5512 | 2.41 nM | 934.8277 | COc1ccc2c(c1)[C@]1(C[C@H]1c1ccc3c(Nc4nc(-c5cncnc5)ncc4OC)n[nH]c3c1)C(=O)N2 [Example 25, (1R,2S)-5′-methoxy-2-{3-[(5-methoxy[2,5′-bipyrimidin]-4-yl)amino]-1H-indazol-6-yl}spiro[cyclopropane-1,3′-indol]-2′(1′H)-one] | 
3 |  | 0.862 nM |  | COc1ccc2c(c1)[C@]1(C[C@H]1c1ccc3c(Nc4ccc(C5(N(C)C)COC5)cc4OC)n[nH]c3c1)C(=O)N2 [Example 9, (1R,2S)-2-(3-{4-[3-(dimethylamino)oxetan-3-yl]-2-methoxyanilino}-1H-indazol-6-yl)-5′-methoxyspiro[cyclopropane-1,3′-indol]-2′(1′H)-one] | 166 nM
